What was measured:
[1] = target: Phosphatidylinositol 4-kinase beta (Homo sapiens) (UniProt Q9UBF8); conditions: Compound concentration 1000.0 nM
[2] = target: Ribosomal protein S6 kinase alpha-6 (Homo sapiens) (UniProt Q9UK32); conditions: Compound concentration 1000.0 nM
[3] = target: Tyrosine-protein kinase ABL1 (Homo sapiens) (UniProt P00519); conditions: Compound concentration 1000.0 nM
[4] = target: Tyrosine-protein kinase Fyn (Homo sapiens) (UniProt P06241); conditions: Compound concentration 1000.0 nM
[5] = target: Focal adhesion kinase 1 (Homo sapiens) (UniProt Q05397); conditions: Compound concentration 1000.0 nM
[6] = target: Mitogen-activated protein kinase kinase kinase kinase 3 (Homo sapiens) (UniProt Q8IVH8); conditions: Compound concentration 1000.0 nM
[7] = tested on: Phosphatidylinositol 4,5-bisphosphate 3-kinase catalytic subunit alpha isoform (Homo sapiens), P42336 [H1047Y]; conditions: Compound concentration 1000.0 nM
[8] = target: Tyrosine-protein kinase TXK (Homo sapiens) (UniProt P42681); conditions: Compound concentration 1000.0 nM
[9] = target: Serine/threonine-protein kinase Nek4 (Homo sapiens) (UniProt P51957); conditions: Compound concentration 1000.0 nM
[10] = tested on: Mast/stem cell growth factor receptor Kit (Homo sapiens), P10721 [L576P]; conditions: Compound concentration 1000.0 nM
[11] = target: Misshapen-like kinase 1 (Homo sapiens) (UniProt Q8N4C8); conditions: Compound concentration 1000.0 nM
[12] = target: Serine/threonine-protein kinase MAK (Homo sapiens) (UniProt P20794); conditions: Compound concentration 1000.0 nM
[13] = target: Macrophage colony-stimulating factor 1 receptor (Homo sapiens) (UniProt P07333); conditions: Compound concentration 1000.0 nM
[14] = tested on: Epidermal growth factor receptor (Homo sapiens), P00533 [UNDEFINED MUTATION]; conditions: Compound concentration 1000.0 nM
[15] = target: Histamine H4 receptor (Homo sapiens) (UniProt Q9H3N8); conditions: Compound concentration 10.0 uM
[16] = target: Cyclin-dependent kinase 11A (Homo sapiens) (UniProt Q9UQ88); conditions: Compound concentration 1000.0 nM
[17] = target: Fibroblast growth factor receptor 3 (Homo sapiens) (UniProt P22607); conditions: Compound concentration 1000.0 nM
[18] = target: Serine/threonine-protein kinase N1 (Homo sapiens) (UniProt Q16512); conditions: Compound concentration 1000.0 nM
[19] = target: Receptor tyrosine-protein kinase erbB-4 (Homo sapiens) (UniProt Q15303); conditions: Compound concentration 1000.0 nM
[20] = target: Protein kinase C epsilon type (Homo sapiens) (UniProt Q02156); conditions: Compound concentration 1000.0 nM
[21] = target: Megakaryocyte-associated tyrosine-protein kinase (Homo sapiens) (UniProt P42679); conditions: Compound concentration 1000.0 nM
[22] = target: Atypical kinase COQ8A, mitochondrial (Homo sapiens) (UniProt Q8NI60); conditions: Compound concentration 1000.0 nM
[23] = target: Calcium/calmodulin-dependent protein kinase type II subunit delta (Homo sapiens) (UniProt Q13557); conditions: Compound concentration 1000.0 nM
[24] = target: Serine/threonine-protein kinase PAK 6 (Homo sapiens) (UniProt Q9NQU5); conditions: Compound concentration 1000.0 nM
[25] = target: LIM domain kinase 1 (Homo sapiens) (UniProt P53667); conditions: Compound concentration 1000.0 nM
[26] = target: cAMP-dependent protein kinase catalytic subunit beta (Homo sapiens) (UniProt P22694); conditions: Compound concentration 1000.0 nM
[27] = target: Dual specificity testis-specific protein kinase 1 (Homo sapiens) (UniProt Q15569); conditions: Compound concentration 1000.0 nM
[28] = target: 5-hydroxytryptamine receptor 2A (Homo sapiens) (UniProt P28223); conditions: Compound concentration 10.0 uM
[29] = tested on: Epidermal growth factor receptor (Homo sapiens), P00533 [UNDEFINED MUTATION]; conditions: Compound concentration 1000.0 nM; remark: listed apart in the source
[30] = target: Ribosomal protein S6 kinase alpha-5 (Homo sapiens) (UniProt O75582); conditions: Compound concentration 1000.0 nM
[31] = target: Serine/threonine-protein kinase PAK 4 (Homo sapiens) (UniProt O96013); conditions: Compound concentration 1000.0 nM
[32] = target: Serine/threonine-protein kinase PLK1 (Homo sapiens) (UniProt P53350); conditions: Compound concentration 1000.0 nM
[33] = target: BMP-2-inducible protein kinase (Homo sapiens) (UniProt Q9NSY1); conditions: Compound concentration 1000.0 nM
[34] = tested on: Serine/threonine-protein kinase B-raf (Homo sapiens), P15056 [V600E]; conditions: Compound concentration 1000.0 nM
[35] = target: Mu-type opioid receptor (Homo sapiens) (UniProt P35372); conditions: Compound concentration 10.0 uM
[36] = target: Mitogen-activated protein kinase kinase kinase 11 (Homo sapiens) (UniProt Q16584); conditions: Compound concentration 1000.0 nM
[37] = tested on: Receptor-type tyrosine-protein kinase FLT3 (Homo sapiens), P36888 [R834Q]; conditions: Compound concentration 1000.0 nM
[38] = target: Serine/threonine-protein kinase PAK 3 (Homo sapiens) (UniProt O75914); conditions: Compound concentration 1000.0 nM
[39] = target: High affinity nerve growth factor receptor (Homo sapiens) (UniProt P04629); conditions: Compound concentration 1000.0 nM
[40] = target: Alpha-1B adrenergic receptor (Homo sapiens) (UniProt P35368); conditions: Compound concentration 10.0 uM
[41] = target: Non-receptor tyrosine-protein kinase TYK2 (Homo sapiens) (UniProt P29597); conditions: Compound concentration 1000.0 nM
[42] = target: Calcium/calmodulin-dependent protein kinase type 1G (Homo sapiens) (UniProt Q96NX5); conditions: Compound concentration 1000.0 nM
[43] = target: Ephrin type-A receptor 6 (Homo sapiens) (UniProt Q9UF33); conditions: Compound concentration 1000.0 nM

Epidermal growth factor receptor (Homo sapiens), P00533 [UNDEFINED MUTATION], sequence (P00533 whole entry, looked up, change not shown): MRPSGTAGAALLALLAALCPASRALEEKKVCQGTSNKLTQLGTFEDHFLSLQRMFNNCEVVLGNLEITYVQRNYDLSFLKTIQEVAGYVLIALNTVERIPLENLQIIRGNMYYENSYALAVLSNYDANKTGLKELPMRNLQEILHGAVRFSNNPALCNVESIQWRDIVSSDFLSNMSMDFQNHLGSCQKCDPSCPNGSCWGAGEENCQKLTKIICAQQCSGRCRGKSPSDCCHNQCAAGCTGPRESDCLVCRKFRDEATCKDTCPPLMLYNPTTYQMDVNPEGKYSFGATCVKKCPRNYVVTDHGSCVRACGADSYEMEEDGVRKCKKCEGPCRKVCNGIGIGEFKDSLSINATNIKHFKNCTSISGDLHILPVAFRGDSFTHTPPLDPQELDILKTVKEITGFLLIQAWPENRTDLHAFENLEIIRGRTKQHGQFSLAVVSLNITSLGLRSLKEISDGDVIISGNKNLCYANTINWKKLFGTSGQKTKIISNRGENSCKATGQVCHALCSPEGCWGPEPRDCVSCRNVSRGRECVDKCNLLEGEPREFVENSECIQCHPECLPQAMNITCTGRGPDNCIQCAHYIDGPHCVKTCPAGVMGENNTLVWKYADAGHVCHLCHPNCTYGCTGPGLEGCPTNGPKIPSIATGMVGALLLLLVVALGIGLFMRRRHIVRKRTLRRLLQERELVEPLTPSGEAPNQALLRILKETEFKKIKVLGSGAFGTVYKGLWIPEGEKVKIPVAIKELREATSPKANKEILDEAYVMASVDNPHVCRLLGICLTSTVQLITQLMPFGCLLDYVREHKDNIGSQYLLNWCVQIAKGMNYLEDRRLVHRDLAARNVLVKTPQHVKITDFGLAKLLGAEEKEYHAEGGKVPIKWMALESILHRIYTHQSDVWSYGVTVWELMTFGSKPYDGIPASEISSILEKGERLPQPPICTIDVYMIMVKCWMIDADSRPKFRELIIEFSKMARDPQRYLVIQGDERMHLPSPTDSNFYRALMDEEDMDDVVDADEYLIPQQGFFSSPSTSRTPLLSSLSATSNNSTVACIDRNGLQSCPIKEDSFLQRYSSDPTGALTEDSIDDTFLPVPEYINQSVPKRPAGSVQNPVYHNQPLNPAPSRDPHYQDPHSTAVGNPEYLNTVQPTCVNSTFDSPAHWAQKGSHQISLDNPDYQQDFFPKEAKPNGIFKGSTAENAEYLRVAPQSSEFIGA
Alpha-1B adrenergic receptor (Homo sapiens), sequence (P35368 whole entry): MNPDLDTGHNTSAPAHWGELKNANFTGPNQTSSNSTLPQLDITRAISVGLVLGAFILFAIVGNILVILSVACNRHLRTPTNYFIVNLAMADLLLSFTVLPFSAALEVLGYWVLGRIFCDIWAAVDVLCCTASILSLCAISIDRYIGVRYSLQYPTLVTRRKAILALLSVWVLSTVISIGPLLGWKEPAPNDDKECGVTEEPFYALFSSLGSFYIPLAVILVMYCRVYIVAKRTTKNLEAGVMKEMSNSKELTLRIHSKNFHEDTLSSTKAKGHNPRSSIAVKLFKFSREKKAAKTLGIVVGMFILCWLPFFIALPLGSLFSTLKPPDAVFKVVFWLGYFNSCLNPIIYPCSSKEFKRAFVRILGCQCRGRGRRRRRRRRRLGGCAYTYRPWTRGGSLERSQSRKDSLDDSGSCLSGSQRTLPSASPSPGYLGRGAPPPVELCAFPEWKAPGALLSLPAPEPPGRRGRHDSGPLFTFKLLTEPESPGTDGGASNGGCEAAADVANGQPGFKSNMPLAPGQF
Serine/threonine-protein kinase Nek4 (Homo sapiens), sequence (P51957 whole entry, looked up): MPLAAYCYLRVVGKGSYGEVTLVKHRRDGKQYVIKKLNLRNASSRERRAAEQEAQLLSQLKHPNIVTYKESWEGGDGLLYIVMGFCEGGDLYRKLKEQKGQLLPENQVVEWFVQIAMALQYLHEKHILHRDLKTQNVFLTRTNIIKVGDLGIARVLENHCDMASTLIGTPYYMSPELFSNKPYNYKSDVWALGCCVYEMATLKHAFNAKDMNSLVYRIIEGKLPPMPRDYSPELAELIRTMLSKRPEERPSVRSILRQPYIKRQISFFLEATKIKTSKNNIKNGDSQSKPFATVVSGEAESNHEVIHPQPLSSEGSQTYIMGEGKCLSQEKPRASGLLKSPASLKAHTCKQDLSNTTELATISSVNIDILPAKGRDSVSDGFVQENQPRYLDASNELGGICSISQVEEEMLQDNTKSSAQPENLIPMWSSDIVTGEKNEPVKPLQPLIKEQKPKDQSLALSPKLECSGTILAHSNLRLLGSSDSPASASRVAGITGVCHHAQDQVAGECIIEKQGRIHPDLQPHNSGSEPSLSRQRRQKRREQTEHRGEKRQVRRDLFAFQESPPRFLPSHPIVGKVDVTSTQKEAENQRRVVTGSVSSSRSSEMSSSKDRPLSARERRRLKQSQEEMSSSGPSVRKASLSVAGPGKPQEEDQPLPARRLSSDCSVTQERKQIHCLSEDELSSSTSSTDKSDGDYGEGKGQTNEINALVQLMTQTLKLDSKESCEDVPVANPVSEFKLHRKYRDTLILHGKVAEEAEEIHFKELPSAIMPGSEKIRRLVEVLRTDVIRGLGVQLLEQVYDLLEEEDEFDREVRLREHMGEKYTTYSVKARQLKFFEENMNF
Receptor tyrosine-protein kinase erbB-4 (Homo sapiens), sequence (Q15303 whole entry): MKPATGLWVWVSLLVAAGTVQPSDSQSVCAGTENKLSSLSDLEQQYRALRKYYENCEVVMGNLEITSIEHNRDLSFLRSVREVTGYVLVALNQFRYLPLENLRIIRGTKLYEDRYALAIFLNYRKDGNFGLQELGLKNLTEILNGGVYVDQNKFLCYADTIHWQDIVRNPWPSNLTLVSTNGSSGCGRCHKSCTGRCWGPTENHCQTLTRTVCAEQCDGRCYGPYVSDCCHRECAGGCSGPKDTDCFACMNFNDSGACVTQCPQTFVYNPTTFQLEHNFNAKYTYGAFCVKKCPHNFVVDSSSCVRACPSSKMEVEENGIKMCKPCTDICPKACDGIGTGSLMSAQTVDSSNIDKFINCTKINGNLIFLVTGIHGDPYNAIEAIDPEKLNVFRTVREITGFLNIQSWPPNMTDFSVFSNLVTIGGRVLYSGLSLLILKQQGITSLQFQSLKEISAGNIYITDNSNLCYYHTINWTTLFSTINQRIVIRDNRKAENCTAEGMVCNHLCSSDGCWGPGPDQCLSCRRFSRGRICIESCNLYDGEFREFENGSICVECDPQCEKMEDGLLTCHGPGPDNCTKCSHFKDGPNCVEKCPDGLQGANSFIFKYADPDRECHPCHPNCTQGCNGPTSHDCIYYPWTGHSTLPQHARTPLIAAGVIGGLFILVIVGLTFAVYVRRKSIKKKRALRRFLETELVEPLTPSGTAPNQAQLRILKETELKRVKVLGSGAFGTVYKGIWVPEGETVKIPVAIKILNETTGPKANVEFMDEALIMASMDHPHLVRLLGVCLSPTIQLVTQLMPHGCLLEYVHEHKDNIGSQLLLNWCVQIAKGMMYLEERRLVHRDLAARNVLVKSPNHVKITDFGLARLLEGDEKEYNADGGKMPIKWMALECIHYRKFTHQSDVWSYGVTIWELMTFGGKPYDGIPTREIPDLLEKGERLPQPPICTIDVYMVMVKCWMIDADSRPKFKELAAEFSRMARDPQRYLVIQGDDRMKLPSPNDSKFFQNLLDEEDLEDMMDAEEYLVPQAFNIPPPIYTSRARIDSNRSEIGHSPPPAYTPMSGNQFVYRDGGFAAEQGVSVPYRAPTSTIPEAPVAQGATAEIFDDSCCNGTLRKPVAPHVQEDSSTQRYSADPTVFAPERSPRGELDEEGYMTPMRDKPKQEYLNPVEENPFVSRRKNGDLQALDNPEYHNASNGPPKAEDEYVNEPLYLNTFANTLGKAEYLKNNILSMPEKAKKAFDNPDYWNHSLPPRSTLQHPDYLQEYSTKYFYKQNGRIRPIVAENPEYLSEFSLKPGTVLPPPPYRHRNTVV
LIM domain kinase 1 (Homo sapiens), sequence (P53667 whole entry, looked up, the tested form may be a part): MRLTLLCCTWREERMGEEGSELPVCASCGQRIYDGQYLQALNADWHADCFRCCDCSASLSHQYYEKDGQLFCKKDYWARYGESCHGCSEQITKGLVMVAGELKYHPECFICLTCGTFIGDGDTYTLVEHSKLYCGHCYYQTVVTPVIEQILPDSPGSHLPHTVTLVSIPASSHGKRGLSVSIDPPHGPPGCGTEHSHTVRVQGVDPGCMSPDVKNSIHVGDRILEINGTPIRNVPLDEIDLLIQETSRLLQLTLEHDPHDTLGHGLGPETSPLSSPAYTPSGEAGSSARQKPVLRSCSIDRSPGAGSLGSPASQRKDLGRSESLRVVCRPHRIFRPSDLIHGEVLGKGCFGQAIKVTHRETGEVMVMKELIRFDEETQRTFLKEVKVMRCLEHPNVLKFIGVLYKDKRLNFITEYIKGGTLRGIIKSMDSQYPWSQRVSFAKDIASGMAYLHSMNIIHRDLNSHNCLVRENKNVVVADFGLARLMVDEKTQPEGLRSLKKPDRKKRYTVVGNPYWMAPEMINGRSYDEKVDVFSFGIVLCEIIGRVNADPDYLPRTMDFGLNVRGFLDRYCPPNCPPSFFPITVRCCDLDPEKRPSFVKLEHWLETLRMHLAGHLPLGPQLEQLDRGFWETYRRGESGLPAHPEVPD
Mu-type opioid receptor (Homo sapiens), sequence (P35372 whole entry): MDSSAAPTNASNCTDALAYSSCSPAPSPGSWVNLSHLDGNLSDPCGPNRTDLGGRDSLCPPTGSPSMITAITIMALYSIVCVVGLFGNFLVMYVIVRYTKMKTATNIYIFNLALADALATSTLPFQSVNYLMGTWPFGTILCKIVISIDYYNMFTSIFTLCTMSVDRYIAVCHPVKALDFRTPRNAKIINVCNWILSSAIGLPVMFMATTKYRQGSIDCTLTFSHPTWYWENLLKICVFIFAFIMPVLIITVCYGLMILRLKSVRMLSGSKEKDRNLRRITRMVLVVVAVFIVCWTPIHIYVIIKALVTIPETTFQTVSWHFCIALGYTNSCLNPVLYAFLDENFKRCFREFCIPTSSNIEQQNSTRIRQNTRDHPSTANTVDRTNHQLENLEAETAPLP

**Q.** With O=C(N1CCS(=O)(=O)CC1)N1C[C@H](c2ccc(OC(F)(F)F)cc2)C[C@H](c2nc(C3CC3)no2)C1 [BAY-386] as the molecule, how does the residual activity [1] read?
**A.** Its residual activity is 100%.

**Q.** And the residual activity [2]?
**A.** Its residual activity is 76%.

**Q.** And the residual activity [3]?
**A.** Its residual activity is 84%.

**Q.** And the residual activity [4]?
**A.** The residual activity was 80%.

**Q.** And the residual activity [5]?
**A.** Its residual activity is 93%.

**Q.** And the residual activity [6]?
**A.** The residual activity was 100%.

**Q.** And the residual activity [7]?
**A.** The residual activity was 100%.

**Q.** What about the residual activity [8] of the same molecule?
**A.** Its residual activity is 100%.

**Q.** And the residual activity [9]?
**A.** Its residual activity is 100%.

**Q.** And the residual activity [10]?
**A.** The residual activity was 100%.

**Q.** What about the residual activity [11] of the same molecule?
**A.** Its residual activity is 99%.

**Q.** And the residual activity [12]?
**A.** The residual activity was 100%.

**Q.** What about the residual activity [13] of the same molecule?
**A.** The residual activity was 100%.

**Q.** And the residual activity [14]?
**A.** Its residual activity is 55%.

**Q.** And the inhibition [15]?
**A.** Its inhibition is -4.72%.

**Q.** And the residual activity [16]?
**A.** The residual activity was 0%.

**Q.** And the residual activity [17]?
**A.** The residual activity was 100%.

**Q.** And the residual activity [18]?
**A.** Its residual activity is 100%.

**Q.** And the residual activity [19]?
**A.** Its residual activity is 95%.

**Q.** What about the residual activity [20] of the same molecule?
**A.** Its residual activity is 97%.

**Q.** What about the residual activity [21] of the same molecule?
**A.** The residual activity was 100%.

**Q.** And the residual activity [22]?
**A.** The residual activity was 100%.

**Q.** What about the residual activity [23] of the same molecule?
**A.** The residual activity was 100%.

**Q.** And the residual activity [24]?
**A.** The residual activity was 100%.

**Q.** What about the residual activity [25] of the same molecule?
**A.** The residual activity was 100%.

**Q.** What about the residual activity [26] of the same molecule?
**A.** The residual activity was 100%.

**Q.** What about the residual activity [27] of the same molecule?
**A.** Its residual activity is 100%.

**Q.** What about the inhibition [28] of the same molecule?
**A.** Its inhibition is 10.5%.

**Q.** And the residual activity [29]?
**A.** The residual activity was 77%.

**Q.** What about the residual activity [30] of the same molecule?
**A.** Its residual activity is 100%.

**Q.** What about the residual activity [31] of the same molecule?
**A.** The residual activity was 100%.

**Q.** What about the residual activity [32] of the same molecule?
**A.** Its residual activity is 91%.

**Q.** What about the residual activity [33] of the same molecule?
**A.** The residual activity was 97%.

**Q.** And the residual activity [34]?
**A.** The residual activity was 100%.

**Q.** What about the inhibition [35] of the same molecule?
**A.** The inhibition was -4.38%.

**Q.** And the residual activity [36]?
**A.** The residual activity was 100%.

**Q.** What about the residual activity [37] of the same molecule?
**A.** Its residual activity is 100%.

**Q.** And the residual activity [38]?
**A.** Its residual activity is 100%.

**Q.** And the residual activity [39]?
**A.** Its residual activity is 87%.

**Q.** And the inhibition [40]?
**A.** Its inhibition is 14.2%.

**Q.** What about the residual activity [41] of the same molecule?
**A.** The residual activity was 53%.

**Q.** And the residual activity [42]?
**A.** Its residual activity is 100%.

**Q.** What about the residual activity [43] of the same molecule?
**A.** The residual activity was 100%.

**Q.** Which results are given for Cc1noc([C@H]2C[C@@H](c3ccc(C(F)(F)F)cc3)CN(C(=O)N3CCS(=O)(=O)C3)C2)n1 [BAY-448]?
**A.** residual activity [1]: 93%; residual activity [2]: 98%; residual activity [3]: 71%; residual activity [4]: 94%; residual activity [5]: 100%; residual activity [6]: 100%; residual activity [7]: 95%; residual activity [8]: 92%; residual activity [9]: 82%; residual activity [10]: 100%; residual activity [11]: 100%; residual activity [12]: 100%; residual activity [13]: 100%; residual activity [14]: 84%; inhibition [15]: -2.74%; residual activity [16]: 100%; residual activity [17]: 100%; residual activity [18]: 100%; residual activity [19]: 100%; residual activity [20]: 100%; residual activity [21]: 100%; residual activity [22]: 91%; residual activity [23]: 100%; residual activity [24]: 100%; residual activity [25]: 100%; residual activity [26]: 100%; residual activity [27]: 91%; inhibition [28]: -2.96%; residual activity [29]: 83%; residual activity [30]: 85%; residual activity [31]: 100%; residual activity [32]: 81%; residual activity [33]: 100%; residual activity [34]: 89%; inhibition [35]: 2.23%; residual activity [36]: 86%; residual activity [37]: 91%; residual activity [38]: 100%; residual activity [39]: 90%; inhibition [40]: -1.18%; residual activity [41]: 100%; residual activity [42]: 100%; residual activity [43]: 100%
